US20110098177A1, “METHODS AND COMPOSITIONS OF PLANT MICRONUTRIENTS” (NOVUS INTERNATIONAL INC., priority 2006, published 2011)

Key:
Assay type in all cases: in vivo
Tygress tomato plants [1] = test: Foliar nutrient concentration 2 weeks after treatment, greenhouse tomato (Examples 4-6); settings: Mn 1.0 lb/acre
Protocol: (§1) The following experiments were performed in a green house during the fall of 2008 and spring of 2009 at GCREC, Balm, University of Florida. Crop set-up, procedures and variables were as follows.
(§2) Transplants of Tygress' tomato plants were planted in 2-gallon pots filled with commercial planting medium with nutrient concentration of Fe, Zn, Mn, Cu being negligible and insufficient for crop growth. Irrigation and non-micronutrient fertilizer were provided daily through microsprinklers at recommended rates for tomato production in Florida. No pesticides were used. Treatments were as described in Tables 4, 5 and 6 below.
(§3) Treatments were applied at 5 WAT (weeks after transplanting) using a water volume of 200 mL/plant. A non-ionic surfactant was added. Foliar tissue analysis was performed at 3 and 7 WAT on the non-applied newest leaves. The concentrations of N, P, K, Mg, Ca, B, Zn, Mn, Fe, and Cu in the foliar tissue were determined from foliar analysis by a commercial laboratory at 2 weeks before treatment and again at 2 weeks after treatment.
(§4) Deionized water was used for foliar applications, and other nutrients were applied as appropriate under non-limiting conditions. Marketable fruit were collected three times during the growing season, starting at 10 WAT (5 weeks after the initial treatment). Tomato fruit was graded as extra-large, large and medium. Non-marketable fruit were harvested and number and weight recorded but not sized.
(§5) Experimental design was a randomized complete block design with 6 replications. Data were analyzed using a general linear model, and means were separated using an LSD test at the 5% significance level.

Tygress tomato plants [2] = test: Yields of tomato fruits, greenhouse (Examples 4-6)
Protocol: as §1, §2, §3, §4, §5

[3] = tested on: soybean plants (Asgrow 1102); test: Visual greenness ratings (1-5 scale) of soybean plants, open-field (Examples 11-12)
Protocol: The following experiments were performed on soybean plants growing in open-field plots during the summer and fall of 2008 at two production fields in West Central Minnesota. […] Trial design was a randomized complete block with 4 replications. Each plot measured 10' by 30' and consisted of five 22'' rows. Although all five rows of each plot were treated, only the center three rows (25' in length) of each plot were machine harvested. The two fields selected for these studies had historical Iron Deficiency Chlorosis (IDC) issues. The two field sites were planted by farmers with elite Roundup Ready commodity type soybean varieties with IDC tolerance (Asgrow 1102, Monsanto Corp.). […] BIOX-M was applied at a rate of 1.12 kg Mn/ha. […] All V4 treatments were applied in 10 gallons per acre of water with a backpack sprayer with a hand boom designed to “band” apply product directly to the plant row. Three nozzles with ConeJet TXVS-2 tips were oriented on either side and over the top of each row. This maximized the applied product to the plant tissue itself and minimized application of product to the soil surface. […] The V6 treatments (where applicable) were applied in 20 gallons per acre of water to increase the suspension of the BIOX products.

[4] = tested on: soybean plants (Asgrow 1102); test: ICP-MS micronutrient content of soybean trifoliates (Examples 11-12); design: Micronutrient content from ICP-MS analysis: Mn: unit not given here; settings: for Micronutrient content from ICP-MS analysis: Fe: in ppm (unit assumed)
Protocol: The following experiments were performed on soybean plants growing in open-field plots during the summer and fall of 2008 at two production fields in West Central Minnesota. […] Trial design was a randomized complete block with 4 replications. Each plot measured 10' by 30' and consisted of five 22'' rows. Although all five rows of each plot were treated, only the center three rows (25' in length) of each plot were machine harvested. The two fields selected for these studies had historical Iron Deficiency Chlorosis (IDC) issues. The two field sites were planted by farmers with elite Roundup Ready commodity type soybean varieties with IDC tolerance (Asgrow 1102, Monsanto Corp.). […] BIOX-M was applied at a rate of 1.12 kg Mn/ha. […] All V4 treatments were applied in 10 gallons per acre of water with a backpack sprayer with a hand boom designed to “band” apply product directly to the plant row. Three nozzles with ConeJet TXVS-2 tips were oriented on either side and over the top of each row. This maximized the applied product to the plant tissue itself and minimized application of product to the soil surface. […] The V6 treatments (where applicable) were applied in 20 gallons per acre of water to increase the suspension of the BIOX products. […] The harvested plants were dried, ground, and subjected to Inductively Coupled Plasma-Mass Spectrometry (ICP-MS) analysis to determine plant micronutrient content.

[5] = tested on: soybean plants (Asgrow 1102); test: Soybean seed yield (Examples 11-12)
Protocol: (§6) The following experiments were performed on soybean plants growing in open-field plots during the summer and fall of 2008 at two production fields in West Central Minnesota. […] Trial design was a randomized complete block with 4 replications. Each plot measured 10' by 30' and consisted of five 22'' rows. Although all five rows of each plot were treated, only the center three rows (25' in length) of each plot were machine harvested. The two fields selected for these studies had historical Iron Deficiency Chlorosis (IDC) issues. The two field sites were planted by farmers with elite Roundup Ready commodity type soybean varieties with IDC tolerance (Asgrow 1102, Monsanto Corp.). […] BIOX-M was applied at a rate of 1.12 kg Mn/ha. […] All V4 treatments were applied in 10 gallons per acre of water with a backpack sprayer with a hand boom designed to “band” apply product directly to the plant row. Three nozzles with ConeJet TXVS-2 tips were oriented on either side and over the top of each row. This maximized the applied product to the plant tissue itself and minimized application of product to the soil surface. […] The V6 treatments (where applicable) were applied in 20 gallons per acre of water to increase the suspension of the BIOX products. Soybean seed was harvested after soybean maturity was reached (3 October at […], and 17 Oct. 2008 at Foxhome) and seed yields for each experimental treatment group were determined. In addition, seed samples from each treatment were dried to 13% moisture content, then analyzed for protein and oil content.

[6] = tested on: soybean plants (Asgrow 1102); test: Soybean seed protein and oil content (Examples 11-12); settings: in %
Protocol: as §6

Question: How did the “B concentration in tomato leaves” value (Tygress tomato plants [1]; 2 weeks after Mn treatment) turn out when `O=S(=O)([O-])[O-].[Mn+2]` [BIOX-INM, manganese sulfate, reference compound] was run?
Answer: 25 ppm

Question: What about the “Ca concentration in tomato leaves” value (Tygress tomato plants [1]; 2 weeks after Mn treatment) of the same compound?
Answer: 0.6%

Question: And the “Cu concentration in tomato leaves” value (Tygress tomato plants [1]; 2 weeks after Mn treatment)?
Answer: 5 ppm

Question: What about the “Fe concentration in tomato leaves” value (Tygress tomato plants [1]; 2 weeks after Mn treatment) of the same compound?
Answer: 117 ppm

Question: And the “K concentration in tomato leaves” value (Tygress tomato plants [1]; 2 weeks after Mn treatment)?
Answer: 3.2%

Question: And the “Mg concentration in tomato leaves” value (Tygress tomato plants [1]; 2 weeks after Mn treatment)?
Answer: 0.3%

Question: What about the “N concentration in tomato leaves” value (Tygress tomato plants [1]; 2 weeks after Mn treatment) of the same compound?
Answer: 3.4%

Question: What about the “P concentration in tomato leaves” value (Tygress tomato plants [1]; 2 weeks after Mn treatment) of the same compound?
Answer: 0.6%

Question: And the “Zn concentration in tomato leaves” value (Tygress tomato plants [1]; 2 weeks after Mn treatment)?
Answer: 34 ppm

Question: And the “Foliar Mn concentration” value (Tygress tomato plants [1]; tomato leaves 2 weeks after Mn treatment)?
Answer: 80.9 a ppm

Question: And the “Marketable tomato yield compared with non-treated control (in words)” value (Tygress tomato plants [2]; BIOX-M at 1.23 lb/acre or more, BIOX-EDM at 2.0 lb/acre, Mn-sulfate at 1.0 lb/acre)?
Answer: significantly higher than the non-treated control

Question: And the Marketable yield (Tygress tomato plants [2]; Mn 1.0 lb/acre, tomato fruits)?
Answer: 4.0 a lb/plant

Question: And the “Mean visual greenness scores (1-5)” value ([3]; 3.27 kg/ha, V4, Jul. 15, 2008 Rating, Foxhome)?
Answer: 3.0

Question: And the “Mean visual greenness scores (1-5)” value ([3]; 3.27 kg/ha, V4, Jul. 15, 2008 Rating, Renville)?
Answer: 2.4

Question: What about the “Mean visual greenness scores (1-5)” value ([3]; 3.27 kg/ha, V4, Jul. 29, 2008 Rating, Foxhome) of the same compound?
Answer: 1.5 A, B, C

Question: And the “Mean visual greenness scores (1-5)” value ([3]; 3.27 kg/ha, V4, Jul. 29, 2008 Rating, Renville)?
Answer: 1.0

Question: And the “Micronutrient content from ICP-MS analysis: Mn” value (from here on “Micronutrient content … Mn”) ([4]; 3.27 kg/ha, V4, Foxhome)?
Answer: 86.58

Question: And the “Micronutrient content from ICP-MS analysis: Fe” value (“Micronutrient content … Fe” below) ([4]; 3.27 kg/ha, V4, Foxhome)?
Answer: 87.35

Question: And the “Micronutrient content … Mn” value ([4]; 3.27 kg/ha, V4, Renville)?
Answer: 83.90

Question: And the “Micronutrient content … Fe” value ([4]; 3.27 kg/ha, V4, Renville)?
Answer: 101.17

Question: What about the Yield ([5]; 3.27 kg/ha, V4, Foxhome) of the same compound?
Answer: 45.05 Bu/A

Question: What about the Yield ([5]; 3.27 kg/ha, V4, Renville) of the same compound?
Answer: 27.13 Bu/A

Question: What about the “Oil content (13% moisture)” value ([6]; 3.27 kg/ha, V4, Foxhome) of the same compound?
Answer: 18.32

Question: What about the “Protein content (13% moisture)” value ([6]; 3.27 kg/ha, V4, Foxhome) of the same compound?
Answer: 32.63

Question: What about the “Oil content (13% moisture)” value ([6]; 3.27 kg/ha, V4, Renville) of the same compound?
Answer: 19.80

Question: What about the “Protein content (13% moisture)” value ([6]; 3.27 kg/ha, V4, Renville) of the same compound?
Answer: 32.36

Question: With “EDDHA chelated iron [BIOX-EDDI, reference compound]” as the compound, how does the “Mean visual greenness scores (1-5)” value ([3]; 2.23 kg/ha, V4, V6, Jul. 15, 2008 Rating, Foxhome) read?
Answer: 2.1

Question: What about the “Mean visual greenness scores (1-5)” value ([3]; 2.23 kg/ha, V4, V6, Jul. 15, 2008 Rating, Renville) of the same compound?
Answer: 2.9

Question: What about the “Mean visual greenness scores (1-5)” value ([3]; 2.23 kg/ha, V4, V6, Jul. 29, 2008 Rating, Foxhome) of the same compound?
Answer: 1.0 C

Question: What about the “Mean visual greenness scores (1-5)” value ([3]; 2.23 kg/ha, V4, V6, Jul. 29, 2008 Rating, Renville) of the same compound?
Answer: 1.4

Question: What about the “Mean visual greenness scores (1-5)” value ([3]; 2.23 kg/ha, V4, Jul. 15, 2008 Rating, Foxhome) of the same compound?
Answer: 2.8

Question: And the “Mean visual greenness scores (1-5)” value ([3]; 2.23 kg/ha, V4, Jul. 15, 2008 Rating, Renville)?
Answer: 2.6

Question: What about the “Mean visual greenness scores (1-5)” value ([3]; 2.23 kg/ha, V4, Jul. 29, 2008 Rating, Foxhome) of the same compound?
Answer: 2.0 A

Question: And the “Mean visual greenness scores (1-5)” value ([3]; 2.23 kg/ha, V4, Jul. 29, 2008 Rating, Renville)?
Answer: 1.3

Question: And the “Greenness of soybean plants compared to control, statement” value ([3]; BIOX-EDDI applied at V4 only, Foxhome site, 29 July rating)?
Answer: not when applied at V4 only

Question: And the “Micronutrient content … Mn” value ([4]; 2.23 kg/ha, V4, V6, Foxhome)?
Answer: 66.03

Question: What about the “Micronutrient content … Fe” value ([4]; 2.23 kg/ha, V4, V6, Foxhome) of the same compound?
Answer: 86.15

Question: What about the “Micronutrient content … Mn” value ([4]; 2.23 kg/ha, V4, V6, Renville) of the same compound?
Answer: 91.09

Question: And the “Micronutrient content … Fe” value ([4]; 2.23 kg/ha, V4, V6, Renville)?
Answer: 99.56

Question: What about the “Micronutrient content … Mn” value ([4]; 2.23 kg/ha, V4, Foxhome) of the same compound?
Answer: 91.22

Question: What about the “Micronutrient content … Fe” value ([4]; 2.23 kg/ha, V4, Foxhome) of the same compound?
Answer: 82.37

Question: What about the “Micronutrient content … Mn” value ([4]; 2.23 kg/ha, V4, Renville) of the same compound?
Answer: 86.45

Question: And the “Micronutrient content … Fe” value ([4]; 2.23 kg/ha, V4, Renville)?
Answer: 96.89

Question: And the Yield ([5]; 2.23 kg/ha, V4, V6, Foxhome)?
Answer: 45.28 Bu/A

Question: And the Yield ([5]; 2.23 kg/ha, V4, V6, Renville)?
Answer: 24.15 Bu/A

Question: And the Yield ([5]; 2.23 kg/ha, V4, Foxhome)?
Answer: 38.98 Bu/A

Question: And the Yield ([5]; 2.23 kg/ha, V4, Renville)?
Answer: 27.19 Bu/A

Question: And the “Oil content (13% moisture)” value ([6]; 2.23 kg/ha, V4, V6, Foxhome)?
Answer: 18.56

Question: And the “Protein content (13% moisture)” value ([6]; 2.23 kg/ha, V4, V6, Foxhome)?
Answer: 32.58

Question: And the “Oil content (13% moisture)” value ([6]; 2.23 kg/ha, V4, V6, Renville)?
Answer: 19.97

Question: What about the “Protein content (13% moisture)” value ([6]; 2.23 kg/ha, V4, V6, Renville) of the same compound?
Answer: 31.97

Question: What about the “Oil content (13% moisture)” value ([6]; 2.23 kg/ha, V4, Foxhome) of the same compound?
Answer: 18.41

Question: And the “Protein content (13% moisture)” value ([6]; 2.23 kg/ha, V4, Foxhome)?
Answer: 32.56

Question: What about the “Oil content (13% moisture)” value ([6]; 2.23 kg/ha, V4, Renville) of the same compound?
Answer: 20.22

Question: And the “Protein content (13% moisture)” value ([6]; 2.23 kg/ha, V4, Renville)?
Answer: 32.14
